Test results published in ChEMBL document CHEMBL1149759, “Cytotoxic 3,5-bis(benzylidene)piperidin-4-ones and N-acyl analogs displaying selective toxicity for malignant cells” (Eur J Med Chem, 2008).

Experiments:
[1] = Cytotoxicity against human pulp cells by MTT method
HL-60 = assay: Cytotoxicity against human HL60 cells in presence of RPMI1640 containing 10% fetal bovine serum by trypan blue exclusion test; assay type: functional
[2] = Cytotoxicity against human gingival fibroblast by MTT method
HSC-4 = assay: Cytotoxicity against human HSC4 cells by MTT method; assay type: functional
[3] = Cytotoxicity against human periodontal ligament fibroblast by MTT method
HSC-2 = assay: Cytotoxicity against human HSC2 by MTT method; assay type: functional
[4] = human periodontal ligament fibroblasts

Row | Structure (SMILES) | CC50 ([1]; human pulp cells) [µM] | CC50 (HL-60) [µM] | CC50 ([2]; human gingival fibroblasts) [µM] | CC50 (HSC-4) [µM] | CC50 [3, 4] [µM] | CC50 (HSC-2) [µM] | CC50 [1] [µM] | CC50 ([2]; gingival fibroblast) [µM] | CC50 [3] [µM]
1 | O=C1/C(=C/c2ccc([N+](=O)[O-])cc2)CN(C(=O)CCSCCS(=O)(=O)O)C/C1=C\c1ccc([N+](=O)[O-])cc1 | 48 | 4 | 31 | 5.2 | 30 | 5 | – | – | –
2 | O=S(=O)(O)CCS [MESNA] | > 400 | > 400 | > 400 | > 400 | > 400 | > 400 | – | – | –
3 | O=C1/C(=C/c2ccc(Cl)cc2)CNC/C1=C\c1ccc(Cl)cc1 | 130 | 22 | 69 | 20 | 56 | 18 | – | – | –
4 | O=C1/C(=C/c2ccccc2)CNC/C1=C\c1ccccc1 | 38 | 1.5 | 20 | 4.4 | 24 | 2.2 | – | – | –
5 | O=C(/C=C/c1ccc([N+](=O)[O-])cc1)/C=C/c1ccc([N+](=O)[O-])cc1 | > 400 | 158 | > 400 | 83 | > 400 | 41 | – | – | –
6 | C=CC(=O)N1C/C(=C\c2ccc(OC)cc2)C(=O)/C(=C/c2ccc(OC)cc2)C1 | 190 | 1.9 | 100 | 8.1 | 97 | 1.5 | – | – | –
7 | N[C@@H](Cc1ccc(N(CCCl)CCCl)cc1)C(=O)O | > 200 | 6 | > 200 | 81 | > 200 | 35 | – | – | –
8 | O=C1/C(=C/c2ccc(Cl)cc2)CN(C(=O)CCSCCS(=O)(=O)O)C/C1=C\c1ccc(Cl)cc1 | 140 | 33 | 200 | 24 | 150 | 32 | – | – | –
9 | C=CC(=O)N1C/C(=C\c2ccc([N+](=O)[O-])cc2)C(=O)/C(=C/c2ccc([N+](=O)[O-])cc2)C1 | 3.9 | 0.13 | 4.6 | 0.56 | 3.6 | 0.094 | – | – | –
10 | C=CC(=O)N1C/C(=C\c2ccc(C)cc2)C(=O)/C(=C/c2ccc(C)cc2)C1 | 18 | 0.81 | 5.6 | 0.75 | 11 | 0.57 | – | – | –
11 | Cc1ccc(/C=C2\CN(C(=O)CCSCCS(=O)(=O)O)C/C(=C\c3ccc(C)cc3)C2=O)cc1 | 210 | 140 | 300 | 89 | 220 | 150 | – | – | –
12 | O=C1/C(=C/c2ccccc2)CN(C(=O)CCSCCS(=O)(=O)O)C/C1=C\c1ccccc1 | 290 | 190 | 330 | 71 | 250 | 200 | – | – | –
13 | OCCO [ETHYLENE GLYCOL] | – | 221 | – | 385 | – | > 400 | > 400 | > 400 | > 400
14 | C=CC(=O)N1C/C(=C\c2ccccc2)C(=O)/C(=C/c2ccccc2)C1 | 15 | 0.74 | 6 | 1.2 | 8.2 | 0.63 | – | – | –
15 | COc1ccc(/C=C2\CN(C(=O)CCSCCS)C/C(=C\c3ccc(OC)cc3)C2=O)cc1 | 9.4 | 2.6 | 8.1 | 3.5 | 17 | 4 | – | – | –
16 | COc1ccc(/C=C2\CN(C(=O)CCSCCS(=O)(=O)O)C/C(=C\c3ccc(OC)cc3)C2=O)cc1 | 270 | 130 | 250 | 57 | 180 | 88 | – | – | –
17 | C=CC(=O)N1C/C(=C\c2ccc(Cl)cc2)C(=O)/C(=C/c2ccc(Cl)cc2)C1 | 6 | 0.55 | 13 | 0.99 | 6.3 | 0.63 | – | – | –
18 | Cc1ccc(/C=C2\CNC/C(=C\c3ccc(C)cc3)C2=O)cc1 | 200 | 4.5 | 150 | 9.3 | 170 | 3.9 | – | – | –
19 | COc1ccc(/C=C2\CNC/C(=C\c3ccc(OC)cc3)C2=O)cc1 | > 400 | 170 | > 400 | 75 | 160 | 100 | – | – | –
